Measurements taken from ChEMBL document CHEMBL3396981, “Synthesis and in vitro biological evaluation of 2-(phenylcarbamoyl)phenyl 4-substituted benzoates” (Bioorg Med Chem, 2015).
≈ marks a conversion by molar mass, not a printed value.

Assays:
[1] = system: Mycobacterium tuberculosis; assay: Antimycobacterial activity against INH, RIF, rifabutin, streptomycin, ethambutol, ofloxacin-resistant Mycobacterium tuberculosis 7357/1998 after 14 days by microdilution method; format: functional; conditions: 7357/1998, 336 h
[2] = Selectivity index, ratio of IC50 for human HepG2 cells to MIC for multidrug-resistant Mycobacterium tuberculosis; format: toxicity, cell-based; conditions: read-out: Selectivity Index
[3] = system: Mycobacterium tuberculosis; assay: Antimycobacterial activity against INH, RIF, rifabutin, streptomycin-resistant Mycobacterium tuberculosis 9449/2006 after 14 days by microdilution method; format: functional; conditions: 9449/2006, 336 h
[4] = system: Mycobacterium tuberculosis; assay: Antimycobacterial activity against INH, RIF, rifabutin, streptomycin, ethambutol, ofloxacin, gentamicin, amikacin-resistant Mycobacterium tuberculosis Praha 131 after 14 days by microdilution method; format: functional; conditions: Praha 131, 336 h
[5] = system: Mycobacterium tuberculosis; assay: Antimycobacterial activity against INH, RIF, rifabutin, streptomycin-resistant Mycobacterium tuberculosis 9449/2006 after 21 days by microdilution method; format: functional; conditions: 9449/2006, 504 h
[6] = system: Mycobacterium tuberculosis; assay: Antimycobacterial activity against INH, RIF, rifabutin, streptomycin, ethambutol, ofloxacin, gentamicin, amikacin-resistant Mycobacterium tuberculosis Praha 131 after 21 days by microdilution method; format: functional; conditions: Praha 131, 504 h
[7] = system: Mycobacterium tuberculosis; assay: Antimycobacterial activity against INH, RIF, rifabutin, streptomycin, ethambutol, ofloxacin, clofazimine-resistant Mycobacterium tuberculosis Praha 4 after 14 days by microdilution method; format: functional; conditions: Praha 4, 336 h
[8] = system: Mycobacterium tuberculosis; assay: Antimycobacterial activity against INH, RIF, rifabutin, streptomycin, ethambutol, ofloxacin-resistant Mycobacterium tuberculosis 7357/1998 after 21 days by microdilution method; format: functional; conditions: 7357/1998, 504 h
[9] = system: Mycobacterium tuberculosis; assay: Antimycobacterial activity against INH, RIF, rifabutin, streptomycin, ethambutol, ofloxacin, clofazimine-resistant Mycobacterium tuberculosis Praha 4 after 21 days by microdilution method; format: functional; conditions: Praha 4, 504 h
[10] = system: Mycobacterium tuberculosis; assay: Antimycobacterial activity against INH, RIF, rifabutin, streptomycin, ethambutol, ofloxacin-resistant Mycobacterium tuberculosis 234/2005 after 21 days by microdilution method; format: functional; conditions: 234/2005, 504 h
[11] = system: Mycobacterium tuberculosis; assay: Antimycobacterial activity against INH, RIF, rifabutin, streptomycin, ethambutol, clofazimine-resistant Mycobacterium tuberculosis Praha 1 after 14 days by microdilution method; format: functional; conditions: Praha 1, 336 h
[12] = system: Mycobacterium tuberculosis; assay: Antimycobacterial activity against INH, RIF, rifabutin, streptomycin, ethambutol, clofazimine-resistant Mycobacterium tuberculosis Praha 1 after 21 days by microdilution method; format: functional; conditions: Praha 1, 504 h
[13] = system: Mycobacterium tuberculosis; assay: Antimycobacterial activity against INH, RIF, rifabutin, streptomycin, ethambutol, ofloxacin-resistant Mycobacterium tuberculosis 234/2005 after 14 days by microdilution method; format: functional; conditions: 234/2005, 336 h

| SMILES | MIC [1] [µM] | selectivity ratio [2] | MIC [3] [µM] | MIC [4] [µM] | MIC [5] [µM] | MIC [6] [µM] | MIC [7] [µM] | MIC [8] [µM] | MIC [9] [µM] | MIC [10] [µM] | MIC [11] [µM] | MIC [12] [µM] | MIC [13] [µM] |
| --- | --- | --- | --- | --- | --- | --- | --- | --- | --- | --- | --- | --- | --- |
| O=C(Oc1ccc(Cl)cc1C(=O)Nc1ccc(Cl)c(Cl)c1)c1ccc([N+](=O)[O-])cc1 | 0.25 (≈ 0.116 µg/mL) | > 100 | 0.25 (≈ 0.116 µg/mL) | 0.25 (≈ 0.116 µg/mL) | 0.5 (≈ 0.233 µg/mL) | 0.25 (≈ 0.116 µg/mL) | 0.25 (≈ 0.116 µg/mL) | 0.5 (≈ 0.233 µg/mL) | 0.5 (≈ 0.233 µg/mL) | – | – | – | – |
| O=C(Oc1ccc(Cl)cc1C(=O)Nc1ccc(C(F)(F)F)cc1)c1ccccc1 | 0.25 (≈ 0.105 µg/mL) | – | 0.5 (≈ 0.21 µg/mL) | 0.25 (≈ 0.105 µg/mL) | 0.5 (≈ 0.21 µg/mL) | 0.5 (≈ 0.21 µg/mL) | – | 0.5 (≈ 0.21 µg/mL) | – | 0.25 (≈ 0.105 µg/mL) | 0.5 (≈ 0.21 µg/mL) | 0.5 (≈ 0.21 µg/mL) | 0.25 (≈ 0.105 µg/mL) |
| Cc1ccc(C(=O)Oc2ccc(Cl)cc2C(=O)Nc2ccc(C(F)(F)F)cc2)cc1 | 1 (≈ 0.434 µg/mL) | > 25 | 1 (≈ 0.434 µg/mL) | 1 (≈ 0.434 µg/mL) | 1 (≈ 0.434 µg/mL) | 1 (≈ 0.434 µg/mL) | 1 (≈ 0.434 µg/mL) | 1 (≈ 0.434 µg/mL) | 1 (≈ 0.434 µg/mL) | 2 (≈ 0.868 µg/mL) | 1 (≈ 0.434 µg/mL) | 1 (≈ 0.434 µg/mL) | 2 (≈ 0.868 µg/mL) |
| O=C(Oc1ccc(Cl)cc1C(=O)Nc1ccc(C(F)(F)F)cc1)c1ccc(C(F)(F)F)cc1 | 0.5 (≈ 0.244 µg/mL) | – | 1 (≈ 0.488 µg/mL) | 0.5 (≈ 0.244 µg/mL) | 1 (≈ 0.488 µg/mL) | 1 (≈ 0.488 µg/mL) | – | 1 (≈ 0.488 µg/mL) | – | 1 (≈ 0.488 µg/mL) | 0.5 (≈ 0.244 µg/mL) | 0.5 (≈ 0.244 µg/mL) | 0.5 (≈ 0.244 µg/mL) |
| O=C(Oc1ccc(Cl)cc1C(=O)Nc1ccc(C(F)(F)F)cc1)c1ccc([N+](=O)[O-])cc1 | 0.5 (≈ 0.232 µg/mL) | > 50 | 0.5 (≈ 0.232 µg/mL) | 0.5 (≈ 0.232 µg/mL) | 1 (≈ 0.465 µg/mL) | 1 (≈ 0.465 µg/mL) | 0.25 (≈ 0.116 µg/mL) | 1 (≈ 0.465 µg/mL) | 1 (≈ 0.465 µg/mL) | 1 (≈ 0.465 µg/mL) | 0.5 (≈ 0.232 µg/mL) | 1 (≈ 0.465 µg/mL) | 0.25 (≈ 0.116 µg/mL) |
| O=C(Oc1ccc(Cl)cc1C(=O)Nc1ccc(C(F)(F)F)cc1)c1ccc(Br)cc1 | 1 (≈ 0.499 µg/mL) | > 25 | 1 (≈ 0.499 µg/mL) | 1 (≈ 0.499 µg/mL) | 1 (≈ 0.499 µg/mL) | 1 (≈ 0.499 µg/mL) | – | 1 (≈ 0.499 µg/mL) | – | 2 (≈ 0.997 µg/mL) | 1 (≈ 0.499 µg/mL) | 1 (≈ 0.499 µg/mL) | 2 (≈ 0.997 µg/mL) |
| O=C(Oc1ccc(Br)cc1C(=O)Nc1ccc(C(F)(F)F)cc1)c1ccccc1 | 0.25 (≈ 0.116 µg/mL) | – | 1 (≈ 0.464 µg/mL) | 0.5 (≈ 0.232 µg/mL) | 1 (≈ 0.464 µg/mL) | 1 (≈ 0.464 µg/mL) | – | 0.5 (≈ 0.232 µg/mL) | – | 0.5 (≈ 0.232 µg/mL) | 1 (≈ 0.464 µg/mL) | 1 (≈ 0.464 µg/mL) | 0.5 (≈ 0.232 µg/mL) |
| Cc1ccc(C(=O)Oc2ccc(Br)cc2C(=O)Nc2ccc(C(F)(F)F)cc2)cc1 | 1 (≈ 0.478 µg/mL) | > 25 | 1 (≈ 0.478 µg/mL) | 1 (≈ 0.478 µg/mL) | 1 (≈ 0.478 µg/mL) | 1 (≈ 0.478 µg/mL) | 1 (≈ 0.478 µg/mL) | 1 (≈ 0.478 µg/mL) | 1 (≈ 0.478 µg/mL) | 2 (≈ 0.957 µg/mL) | 1 (≈ 0.478 µg/mL) | 1 (≈ 0.478 µg/mL) | 2 (≈ 0.957 µg/mL) |
| O=C(Oc1ccc(Br)cc1C(=O)Nc1ccc(C(F)(F)F)cc1)c1ccc(C(F)(F)F)cc1 | 1 (≈ 0.532 µg/mL) | – | 1 (≈ 0.532 µg/mL) | 0.5 (≈ 0.266 µg/mL) | 1 (≈ 0.532 µg/mL) | 1 (≈ 0.532 µg/mL) | – | 1 (≈ 0.532 µg/mL) | – | 1 (≈ 0.532 µg/mL) | 0.5 (≈ 0.266 µg/mL) | 1 (≈ 0.532 µg/mL) | 0.5 (≈ 0.266 µg/mL) |
| O=C(Oc1ccc(Br)cc1C(=O)Nc1ccc(C(F)(F)F)cc1)c1ccc([N+](=O)[O-])cc1 | 0.5 (≈ 0.255 µg/mL) | > 100 | 0.5 (≈ 0.255 µg/mL) | 0.25 (≈ 0.127 µg/mL) | 0.5 (≈ 0.255 µg/mL) | 0.5 (≈ 0.255 µg/mL) | 0.5 (≈ 0.255 µg/mL) | 0.5 (≈ 0.255 µg/mL) | 0.5 (≈ 0.255 µg/mL) | – | – | – | – |
| O=C(Oc1ccc(Br)cc1C(=O)Nc1ccc(C(F)(F)F)cc1)c1ccc(Br)cc1 | 0.5 (≈ 0.272 µg/mL) | > 50 | 0.5 (≈ 0.272 µg/mL) | 0.5 (≈ 0.272 µg/mL) | 1 (≈ 0.543 µg/mL) | 1 (≈ 0.543 µg/mL) | 0.25 (≈ 0.136 µg/mL) | 1 (≈ 0.543 µg/mL) | 0.5 (≈ 0.272 µg/mL) | – | – | – | – |
| O=C(Oc1ccc(Cl)cc1C(=O)Nc1ccc(Cl)c(Cl)c1)c1ccccc1 | 0.5 (≈ 0.21 µg/mL) | – | 0.5 (≈ 0.21 µg/mL) | 0.5 (≈ 0.21 µg/mL) | 1 (≈ 0.421 µg/mL) | 1 (≈ 0.421 µg/mL) | – | 0.5 (≈ 0.21 µg/mL) | – | 0.5 (≈ 0.21 µg/mL) | 0.5 (≈ 0.21 µg/mL) | 0.5 (≈ 0.21 µg/mL) | 0.25 (≈ 0.105 µg/mL) |
| Cc1ccc(C(=O)Oc2ccc(Cl)cc2C(=O)Nc2ccc(Cl)c(Cl)c2)cc1 | 1 (≈ 0.435 µg/mL) | > 25 | 1 (≈ 0.435 µg/mL) | 1 (≈ 0.435 µg/mL) | 1 (≈ 0.435 µg/mL) | 1 (≈ 0.435 µg/mL) | 1 (≈ 0.435 µg/mL) | 1 (≈ 0.435 µg/mL) | 1 (≈ 0.435 µg/mL) | 2 (≈ 0.869 µg/mL) | 1 (≈ 0.435 µg/mL) | 1 (≈ 0.435 µg/mL) | 2 (≈ 0.869 µg/mL) |
| O=C(Oc1ccc(Cl)cc1C(=O)Nc1ccc(Cl)c(Cl)c1)c1ccc(C(F)(F)F)cc1 | 1 (≈ 0.489 µg/mL) | – | 2 (≈ 0.977 µg/mL) | 2 (≈ 0.977 µg/mL) | 2 (≈ 0.977 µg/mL) | 2 (≈ 0.977 µg/mL) | – | 2 (≈ 0.977 µg/mL) | – | 2 (≈ 0.977 µg/mL) | 1 (≈ 0.489 µg/mL) | 2 (≈ 0.977 µg/mL) | 1 (≈ 0.489 µg/mL) |
| O=C(Oc1ccc(Cl)cc1C(=O)Nc1ccc(Cl)c(Cl)c1)c1ccc(Br)cc1 | 0.125 (≈ 0.0624 µg/mL) | > 100 | 0.25 (≈ 0.125 µg/mL) | 0.25 (≈ 0.125 µg/mL) | 0.5 (≈ 0.25 µg/mL) | 0.25 (≈ 0.125 µg/mL) | 0.25 (≈ 0.125 µg/mL) | 0.125 (≈ 0.0624 µg/mL) | 0.5 (≈ 0.25 µg/mL) | – | – | – | – |
